Experimental data from US6337322B1, “Preventives and remedies for intestinal mucosal disorder” (Meiji Milk Products Co., Ltd., priority 1998, dated 2002).
Counter-ions that a name gives are not always drawn.

Legend:
[1] = tested on: keratinocyte; conditions: cited from earlier work
[2] = tested on: villous epithelium of the duodenum; experiment: Test Example 2: duodenal disorder induced by four-day fasting and intraperitoneal 5% dextrose, HE-stained tissue sections; type: in vivo, rat; conditions: 250 mg/5 mL/kg orally twice a day, first to third fasting day, versus control group
Description: Nine-week-old CD (SD) IGS male rats were employed in the test. The rats were kept in individual fasting cages, and the day after initiation of fasting was regarded as the first fasting day. Fasting (i.e., provision of no food and no water) was carried out for four days, and on the fourth day the rats were sacrificed through […]. A 5% dextrose solution was intraperitoneally administered to each rat in an amount of 10 mL on the basis of body weight (100 g) from the first fasting day to the third fasting day, to thereby induce disorders. The rats were divided into two groups: a control group and a drug administration group. To the rats of the control group, sterile water was orally administered in an amount of 0.5 mL per 100 g of body weight twice a day, at 10:00 AM and 4:00 PM. To the rats of the drug administration group, ethanolamine hydrochloride was administered in an amount of 250 mg/5 mL/kg twice a day, at 10:00 AM and 4:00 PM. The administration was carried out from the first fasting day to the third fasting day. On the fourth fasting day, the rats were sacrificed through cervical dislocation, and the stomach and the duodenum were removed from each rat. The inside of the intestinal tract was washed with saline. Subsequently, the pylorus was ligated and the tract was also ligated at a position 4 cm from the pylorus. […]

[3] = Test Example 1: body weight of fasting rats; type: in vivo, rat; conditions: 48 hours; for Weight ± standard deviation, Final: fasting rats, free ingestion
Description: Six-week-old male Sprague-Dawley rats (purchased from Nippon Charles River) were employed in the test. Water and solid feed (CRF-1, product of Oriental Yeast) were freely ingested by the rats. […] The test was carried out for 48 hours. For the fasting groups, solid feed was removed in the morning of the day on which the test was initiated. During the 48 hours, solid feed, water, and an ethanolamine hydrochloride-containing aqueous solution were freely ingested by the rats in the solid feed ingestion group, the water ingestion fasting group, and the ethanolamine hydrochloride ingestion fasting group, respectively. The amount of water ingested during the 48 hours was measured, and the amount of ingested ethanolamine per rat was calculated on the basis of the amount of water (Table 2). For each group, the rats were weighed at the time of test initiation and the time of test completion, in order to obtain the average weight (Table 1). In the fasting groups, any changes in the weight of the rats that could be attributed to ethanolamine ingestion were not observed.

[4] = tested on: primarily cultured liver cells; conditions: cited from earlier work
[5] = tested on: duodenal epithelial mucosa tissue; experiment: Test Example 1: atrophy of duodenal epithelial mucosa caused by 48-hour fasting, PAS-stained tissue sections; type: in vivo, rat; conditions: for Density of secretion granules / Intercellular space / Size of cell / Size of nucleus: fasting rats, 48 hours
Description: Six-week-old male Sprague-Dawley rats (purchased from Nippon Charles River) were employed in the test. Water and solid feed (CRF-1, product of Oriental Yeast) were freely ingested by the rats. […] The test was carried out for 48 hours. For the fasting groups, solid feed was removed in the morning of the day on which the test was initiated. During the 48 hours, solid feed, water, and an ethanolamine hydrochloride-containing aqueous solution were freely ingested by the rats in the solid feed ingestion group, the water ingestion fasting group, and the ethanolamine hydrochloride ingestion fasting group, respectively. The amount of water ingested during the 48 hours was measured, and the amount of ingested ethanolamine per rat was calculated on the basis of the amount of water (Table 2). […] The small intestine was excised from each rat, and a duodenal portion (size: 1 cm in length) was removed from a position 5 cm in the direction of the anus away from the pylorus. The removed portion was fixed in phosphate buffered formalin. After 24-hour fixation, the duodenal portion was embedded in paraffin using a conventional technique, to thereby prepare a tissue section. The thus-prepared tissue sample was subjected to PAS staining, and then observed.

[6] = 1 μM Etn in water (6 μg/kg/day)
[7] = 10 μM Etn in water (34 μg/kg/day)
[8] = 100 μM Etn in water (330 μg/kg/day)
[9] = 1000 μM Etn in water (4500 μg/kg/day)

NCCO [ethanolamine]
proliferation of epithelial cells [1]: promote proliferation | cellular infiltration [2]: only slight | necrosis of the villous epithelium [2]: remarkably suppressed | changes in the weight of the rats that could be attributed to ethanolamine ingestion ([3]; fasting groups): not observed | proliferation of liver cells ([4]; in the presence of a cell growth factor such as EGF, ethanolamine 10-100 μM): synergistically promoted | proliferation-promoting activity ([4]; only ethanolamine added, no cell growth factor): not observed

NCCO [ethanolamine hydrochloride]
position of nuclei in cells ([5]; 100 μM ingestion fasting group): situated centrally | enlarged intercellular spaces and cell atrophy ([5]; 100 μM ingestion fasting group, compared with solid feed ingestion group): not observed | cell nuclei size ([5]; 100 μM ingestion fasting group, compared with water and 1 or 10 μM fasting groups): considerably enlarged | PAS staining of mucus-secreting granules in goblet cells ([5]; 100 μM ingestion fasting group, compared with water ingestion fasting group): heavily stained | cell nuclei size ([5]; 1 or 10 μM ingestion fasting groups): reduced in size | Density of secretion granules [5, 6]: Low | Intercellular space [5, 6]: Large | Size of cell [5, 6]: Small | Size of nucleus [5, 6]: Small | Density of secretion granules [5, 7]: Low | Intercellular space [5, 7]: Large | Size of cell [5, 7]: Small | Size of nucleus [5, 7]: Small | Density of secretion granules [5, 8]: High | Intercellular space [5, 8]: None | Size of cell [5, 8]: Large | Size of nucleus [5, 8]: Large | Density of secretion granules [5, 9]: High | Intercellular space [5, 9]: None | Size of cell [5, 9]: Large | Size of nucleus [5, 9]: Large | prevention and treatment of atrophy of the small intestine caused by fasting ([5]; overall conclusion of Test Example 1): effective | Weight ± standard deviation, Final ([3]; 1 μM Etn in water): 208.2 ± 3.1 g | Weight ± standard deviation, Final ([3]; 10 μM Etn in water): 209.4 ± 7.4 g | Weight ± standard deviation, Final ([3]; 100 μM Etn in water): 210.4 ± 3.9 g | Weight ± standard deviation, Final ([3]; 1000 μM Etn in water): 213.1 ± 6.7 g
